By IC50 is commonly meant the concentration that inhibits the measured activity by half.

From US20240116985A1, “STAPLED PEPTIDES AND METHODS THEREOF” (priority 2020, published 2024) come the findings set out here.

This assay concerns the target T1, full-length beta-Catenin (Uniprot ID P35222) (Homo sapiens, UniProt P35222).
T1 construct: 10 nM full-length beta-Catenin (Uniprot ID P35222)
T1 sequence (P35222 1-781): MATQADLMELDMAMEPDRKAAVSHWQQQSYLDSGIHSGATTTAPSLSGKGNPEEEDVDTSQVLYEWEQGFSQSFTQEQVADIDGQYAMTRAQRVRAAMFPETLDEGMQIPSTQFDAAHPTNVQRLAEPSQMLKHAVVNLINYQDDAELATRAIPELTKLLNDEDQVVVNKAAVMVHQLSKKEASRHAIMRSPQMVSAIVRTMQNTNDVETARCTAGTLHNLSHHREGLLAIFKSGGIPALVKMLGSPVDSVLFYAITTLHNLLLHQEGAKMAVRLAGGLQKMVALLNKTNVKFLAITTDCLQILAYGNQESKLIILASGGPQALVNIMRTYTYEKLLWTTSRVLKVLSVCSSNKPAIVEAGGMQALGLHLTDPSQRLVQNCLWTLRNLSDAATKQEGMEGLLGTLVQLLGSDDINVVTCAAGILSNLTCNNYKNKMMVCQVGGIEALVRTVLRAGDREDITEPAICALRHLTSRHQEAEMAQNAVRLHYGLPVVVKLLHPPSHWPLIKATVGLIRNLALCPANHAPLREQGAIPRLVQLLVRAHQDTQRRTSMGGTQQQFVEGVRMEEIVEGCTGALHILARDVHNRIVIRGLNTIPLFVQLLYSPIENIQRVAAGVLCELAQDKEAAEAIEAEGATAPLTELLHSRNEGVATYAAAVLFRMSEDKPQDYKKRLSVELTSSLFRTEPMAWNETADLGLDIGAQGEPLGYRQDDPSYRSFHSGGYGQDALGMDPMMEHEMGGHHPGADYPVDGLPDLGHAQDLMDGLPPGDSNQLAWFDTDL
Briefly: Fluorescence polarization IC50 (beta-catenin / 5FAM-TCF4 10-53 competition). The following applies: fluorescence polarization; read-out: beta-Catenin FP IC50. In kind it is binding. On the technique in general: In fluorescence polarisation assays a small probe gives low polarisation when free and higher when bound to something large.

Structures are written as SMILES.

With `CC(=O)N1CCC[C@]12CCCCCCC1(CCCCCCCCOC(=O)N3CC[C@@](C(=O)N[C@@H](Cc4ccsc4)C(=O)N[C@@H](Cc4csc5ccccc45)C(=O)N[C@@H](CCC(N)=O)C(N)=O)(C3)NC(=O)[C@H](CC(C)C)NC(=O)[C@H](Cc3ccccc3)NC(=O)[C@H](C)NC(=O)[C@H](CCO)NC(=O)[C@H](CCC(N)=O)NC(=O)[C@H](CC(=O)O)NC1=O)NC(=O)[C@H](CC1CCCCC1)NC(=O)[C@H](CC(N)=O)NC2=O` (stereo partly drawn) [I-2451, Ac-PL3-Asn-Cha-B5-Asp-Gln-Hse-Ala-Phe-Leu-PyrS2-3Thi-BztA-Gln-NH2], the IC50 was 4.86 µM. As for `CC(=O)N1CCC[C@]12CCCCCCC1(CCCCCCCCOC(=O)N3CC[C@@](C(=O)N[C@@H](Cc4ccsc4)C(=O)N[C@@H](Cc4csc5ccccc45)C(=O)N[C@@H](CCC(N)=O)C(N)=O)(C3)NC(=O)[C@H](CC(C)C)NC(=O)[C@H](Cc3ccccc3)NC(=O)[C@H](C)NC(=O)[C@H](CCCCNC(C)C)NC(=O)[C@H](CCC(N)=O)NC(=O)[C@H](CC(=O)O)NC1=O)NC(=O)[C@H](CC1CCCCC1)NC(=O)[C@H](CC(N)=O)NC2=O` (stereo partly drawn) [I-2452, Ac-PL3-Asn-Cha-B5-Asp-Gln-iPrLys-Ala-Phe-Leu-PyrS2-3Thi-BztA-Gln-NH2], the IC50 came out at 7.2 µM. Under `CC(=O)N1CCC[C@]12CC=CCCCC1(CCCC=CCCCOC(=O)N3CC[C@@](C(=O)N[C@@H](Cc4ccccc4C(F)(F)F)C(=O)N[C@@H](Cc4ccc5ccccc5c4)C(=O)N[C@@H](C)C(N)=O)(C3)NC(=O)[C@H](CC(C)C)NC(=O)[C@H](Cc3ccccc3)NC(=O)[C@H](C)NC(=O)[C@H](CCC(N)=O)NC(=O)[C@H](Cc3cccc(C(=O)O)c3)NC(=O)[C@H](CC(=O)O)NC1=O)NC(=O)[C@H](CC(C)(C)C)NC(=O)[C@H](CC(=O)O)NC2=O` (stereo partly drawn) [I-2461, Ac-PL3-Asp-Npg-B5-Asp-3COOHF-Gln-Ala-Phe-Leu-PyrS2-2F3MeF-2NapA-Ala-NH2] stands 0.075 µM; under `CC(=O)N1CCC[C@]12CC=CCCCC1(CCCC=CCCCOC(=O)N3CC[C@@](C(=O)N[C@@H](Cc4ccccc4C(F)(F)F)C(=O)N[C@@H](Cc4csc5ccccc45)C(=O)N[C@@H](CCC(=O)N(C)C)C(=O)N[C@@H](C)C(N)=O)(C3)NC(=O)[C@H](CC(C)C)NC(=O)[C@H](Cc3ccccc3)NC(=O)[C@H](C)NC(=O)[C@H](C)NC(=O)[C@H](Cc3cccc(C(=O)O)c3)NC(=O)[C@H](CC(=O)O)NC1=O)NC(=O)[C@H](CC(C)(C)C)NC(=O)[C@H](CC(=O)O)NC2=O` (stereo partly drawn) [I-2466, Ac-PL3-Asp-Npg-B5-Asp-3COOHF-Ala-Ala-Phe-Leu-PyrS2-2F3MeF-BztA-Me2Gln-Ala-NH2], 0.015 µM; under `CCNC(=O)CC[C@H](NC(=O)[C@H](Cc1csc2ccccc12)NC(=O)[C@H](Cc1ccccc1C(F)(F)F)NC(=O)[C@]12CCN(C1)C(=O)OCCCC=CCCCC1(CCCC=CC[C@]3(CCCN3C(C)=O)C(=O)N[C@@H](CC(=O)O)C(=O)N[C@@H](CC(C)(C)C)C(=O)N1)C(=O)N[C@@H](CC(=O)O)C(=O)N[C@@H](Cc1cccc(C(=O)O)c1)C(=O)N[C@@H](C)C(=O)N[C@@H](C)C(=O)N[C@@H](Cc1ccccc1)C(=O)N[C@@H](CC(C)C)C(=O)N2)C(=O)N[C@@H](C)C(N)=O` (stereo partly drawn) [I-2470, Ac-PL3-Asp-Npg-B5-Asp-3COOHF-Ala-Ala-Phe-Leu-PyrS2-2F3MeF-BztA-NHEt]GlnR-Ala-NH2], 0.024 µM. Under `CCNC(=O)CC[C@H](NC(=O)[C@H](Cc1csc2ccccc12)NC(=O)[C@H](Cc1ccsc1)NC(=O)[C@]12CCN(C1)C(=O)OCCCC=CCCCC1(CCCC=CC[C@]3(CCCN3C(C)=O)C(=O)N[C@@H](CC(=O)O)C(=O)N[C@@H](CC(C)(C)C)C(=O)N1)C(=O)N[C@@H](CC(=O)O)C(=O)N[C@@H](Cc1cccc(C(=O)O)c1)C(=O)NC(C)(C)C(=O)N[C@@H](C)C(=O)N[C@@H](Cc1ccccc1)C(=O)N[C@@H](CC)C(=O)N2)C(=O)N[C@@H](C)C(N)=O` (stereo partly drawn) [I-2473, Ac-PL3-Asp-Npg-B5-Asp-3COOHF-Aib-Ala-Phe-Abu-PyrS2-3Thi-BztA-[NHEt]GlnR-Ala-NH2] stands 0.007 µM. On to `CC[C@@H]1NC(=O)[C@H](Cc2ccccc2)NC(=O)[C@H](C)NC(=O)C(C)(C)NC(=O)[C@H](Cc2cccc(C(=O)O)c2)NC(=O)[C@H](CC(=O)O)NC(=O)C2(CCCC=CCCCOC(=O)N3CC[C@@](C(=O)N[C@@H](Cc4ccsc4)C(=O)N[C@@H](Cc4csc5ccccc45)C(=O)N[C@@H](CCC(=O)N4CCCCC4)C(=O)N[C@@H](C)C(N)=O)(C3)NC1=O)CCCC=CC[C@]1(CCCN1C(C)=O)C(=O)N[C@@H](CC(=O)O)C(=O)N[C@@H](CC(C)(C)C)C(=O)N2` (stereo partly drawn) [I-2476, Ac-PL3-Asp-Npg-B5-Asp-3COOHF-Aib-Ala-Phe-Abu-PyrS2-3Thi-BztA-[Pip]GlnR-Ala-NH2], for which the IC50 came to 0.007 µM. On to `CC(=O)N1CCC[C@]12CC=CCCCC1(CCCC=CCCCOC(=O)N3CC[C@@](C(=O)N[C@@H](Cc4ccsc4)C(=O)N[C@@H](Cc4csc5ccccc45)C(=O)N[C@@H](CC(C)C)C(N)=O)(C3)NC(=O)[C@H](CC(N)=O)NC(=O)[C@H](Cc3ccccc3)NC(=O)[C@H](C)NC(=O)C(C)(C)NC(=O)[C@H]([C@@H](C)O)NC(=O)[C@H](CC(N)=O)NC1=O)NC(=O)[C@H](CC(C)(C)C)NC(=O)[C@H](CC(=O)O)NC2=O` (stereo partly drawn) [I-2479, Ac-PL3-Asp-Npg-B5-Asn-Thr-Aib-Ala-Phe-Asn-PyrS2-3Thi-BztA-Leu-NH2], for which the IC50 was determined as 0.627 µM. Under `CC(=O)N1CCC[C@]12CC=CCCCC1(CCCC=CCCCOC(=O)N3CC[C@@](C(=O)N[C@@H](Cc4ccsc4)C(=O)N[C@@H](Cc4csc5ccccc45)C(=O)N[C@H](C(N)=O)C(C)C)(C3)NC(=O)[C@H](CC(N)=O)NC(=O)[C@H](Cc3ccccc3)NC(=O)[C@H](C)NC(=O)C(C)(C)NC(=O)[C@H]([C@@H](C)O)NC(=O)[C@H](CC(N)=O)NC1=O)NC(=O)[C@H](CC(C)(C)C)NC(=O)[C@H](CC(=O)O)NC2=O` (stereo partly drawn) [I-2480, Ac-PL3-Asp-Npg-B5-Asn-Thr-Aib-Ala-Phe-Asn-PyrS2-3Thi-BztA-Val-NH2] stands 0.475 µM. On to `CC(=O)N1CCC[C@]12CC=CCCCC1(CCCC=CCCCOC(=O)N3CC[C@@](C(=O)N[C@@H](Cc4ccsc4)C(=O)N[C@@H](Cc4csc5ccccc45)C(=O)N[C@@H](Cc4c[nH]c5ccccc45)C(N)=O)(C3)NC(=O)[C@H](CC(N)=O)NC(=O)[C@H](Cc3ccccc3)NC(=O)[C@H](C)NC(=O)C(C)(C)NC(=O)[C@H]([C@@H](C)O)NC(=O)[C@H](CC(N)=O)NC1=O)NC(=O)[C@H](CC(C)(C)C)NC(=O)[C@H](CC(=O)O)NC2=O` (stereo partly drawn) [I-2481, Ac-PL3-Asp-Npg-B5-Asn-Thr-Aib-Ala-Phe-Asn-PyrS2-3Thi-BztA-Trp-NH2], for which the concentration for half-maximal inhibition (IC50) was determined as 0.754 µM.

On to `CC(=O)N1CCC[C@]12CC=CCCCC1(CCCC=CCCCOC(=O)N3CC[C@@](C(=O)N[C@@H](Cc4ccsc4)C(=O)N[C@@H](Cc4csc5ccccc45)C(=O)N[C@@H](CCC(N)=O)C(N)=O)(C3)NC(=O)[C@H](CC(C)C)NC(=O)[C@H](Cc3ccccc3)NC(=O)[C@H](C)NC(=O)[C@H](C)NC(=O)[C@H](Cn3cc(CC4(C(=O)O)CC4)nn3)NC(=O)[C@H](CC(=O)O)NC1=O)NC(=O)[C@H](CC(C)(C)C)NC(=O)[C@H](CC(=O)O)NC2=O` (stereo partly drawn) [I-2482, Ac-PL3-Asp-Npg-B5-Asp-[CH2CCpCO2H]TriAzDap-Ala-Ala-Phe-Leu-PyrS2-3Thi-BztA-Gln-NH2], for which the IC50 is 0.005 µM. Consider `CC(=O)N1CCC[C@]12CC=CCCCC1(CCCC=CCCCOC(=O)N3CC[C@@](C(=O)N[C@@H](Cc4ccsc4)C(=O)N[C@@H](Cc4csc5ccccc45)C(=O)N[C@@H](CCC(N)=O)C(N)=O)(C3)NC(=O)[C@H](CC(C)C)NC(=O)[C@H](Cc3ccccc3)NC(=O)[C@H](C)NC(=O)[C@H](C)NC(=O)[C@H](Cn3cc(CC4(C(=O)O)CCCCC4)nn3)NC(=O)[C@H](CC(=O)O)NC1=O)NC(=O)[C@H](CC(C)(C)C)NC(=O)[C@H](CC(=O)O)NC2=O` (stereo partly drawn) [I-2483, Ac-PL3-Asp-Npg-B5-Asp-[CH2CChCO2H]TriAzDap-Ala-Ala-Phe-Leu-PyrS2-3Thi-BztA-Gln-NH2], for which the IC50 was found to be 0.005 µM. In the case of `CC(=O)N1CCC[C@]12CC=CCCCC1(CCCC=CCCCOC(=O)N3CC[C@@](C(=O)N[C@@H](Cc4ccccc4)C(=O)N[C@@H](Cc4csc5ccccc45)C(=O)N[C@@H](CC(=O)N4CCOCC4)C(N)=O)(C3)NC(=O)[C@H](CC(C)C)NC(=O)[C@H](Cc3ccccc3)NC(=O)[C@H](C)NC(=O)[C@H](CCO)NC(=O)[C@H](CCC(N)=O)NC(=O)[C@H](CC(=O)O)NC1=O)NC(=O)[C@H](CC1CCCCC1)NC(=O)[C@H](CC(N)=O)NC2=O` (stereo partly drawn) [I-2498, Ac-PL3-Asn-Cha-B5-Asp-Gln-Hse-Ala-Phe-Leu-PyrS2-Phe-BztA-MorphAsn-NH2], the IC50 is 0.449 µM. Regarding `CC(=O)N1CCC[C@]12CC=CCCCC1(CCCC=CCCCOC(=O)N3CC[C@@](C(=O)N[C@@H](Cc4ccccc4)C(=O)N[C@@H](Cc4csc5ccccc45)C(=O)N[C@@H](CC(=O)N4CCOCC4)C(N)=O)(C3)NC(=O)[C@H](CC(C)C)NC(=O)[C@H](Cc3ccccc3)NC(=O)[C@H](C)NC(=O)[C@H]([C@@H](C)O)NC(=O)[C@H](CCC(N)=O)NC(=O)[C@H](CC(=O)O)NC1=O)NC(=O)[C@H](CC1CCCCC1)NC(=O)[C@H](CC(N)=O)NC2=O` (stereo partly drawn) [I-2503, Ac-PL3-Asn-Cha-B5-Asp-Gln-Thr-Ala-Phe-Leu-PyrS2-Phe-BztA-MorphAsn-NH2], the IC50 worked out at 1.31 µM.
